ChEMBL document CHEMBL5357030, “Caged Xanthones and Biphenyls Isolated from the Tropical Plant Garcinia lateriflora” (J Nat Prod, 2024)

Tests used:
Type in all cases: functional, cell-based
A549 = experiment: Antiproliferative activity against human A549 cells assessed as inhibition of cell growth incubated for 72 hrs by SRB assay; settings: A549, 72 h
MDA-MB-231 = experiment: Antiproliferative activity against triple negative human MDA-MB-231 cells assessed as inhibition of cell growth incubated for 72 hrs by SRB assay; settings: MDA-MB-231, 72 h
MCF7 = experiment: Antiproliferative activity against HER2-negative human MCF7 cells assessed as inhibition of cell growth incubated for 72 hrs by SRB assay; settings: MCF7, 72 h
KB = experiment: Antiproliferative activity against human KB cells assessed as inhibition of cell growth incubated for 72 hrs by SRB assay
[1] = Antiproliferative activity against human KB-VIN cells overexpressing p-gp assessed as inhibition of cell growth incubated for 72 hrs by SRB assay; settings: KBVIN

SMILES	IC50 (A549) [µM]	IC50 (MDA-MB-231) [µM]	IC50 (MCF7) [µM]	IC50 (KB) [µM]	IC50 [1] [µM]
COc1c(O)c(O)cc(-c2ccccc2)c1CC=C(C)C	> 10	> 10	> 10	> 10	> 10
C=CC(C)(C)c1c2c(c(O)c3c1OC(C)(C)[C@H]1CCC(C)=C[C@@H]31)C(=O)[C@@H]1[C@@H](OC)[C@@H]3C[C@H]4C(C)(C)O[C@@](C/C=C(\C)C(=O)O)(C3=O)[C@@]14O2	5.6	5.7	6.4	5.2	5.2
C=CC(C)(C)c1c2c(c(O)c3c1OC(C)(C)[C@H]1CCC(C)=C[C@@H]31)C(=O)[C@@H]1[C@@H](O)[C@@H]3C[C@H]4C(C)(C)O[C@@](C/C=C(\C)C(=O)O)(C3=O)[C@@]14O2	6.1	6.4	6.7	5.3	5.7
C=CC(C)(C)c1c2c(c(O)c3c1O[C@]14C(=C[C@@H]5C[C@H]1C(C)(C)O[C@@]4(C/C=C(\C)C(=O)O)C5=O)C3=O)C=CC(C)(C)O2	0.8	0.5	1.3	0.6	0.6
CC(=O)O[C@H]1C(=O)[C@@]2(C)[C@H]([C@H](OC(=O)c3ccccc3)[C@]3(O)C[C@H](OC(=O)[C@H](O)[C@@H](NC(=O)c4ccccc4)c4ccccc4)C(C)=C1C3(C)C)[C@]1(OC(C)=O)CO[C@@H]1C[C@@H]2O [PACLITAXEL]		0.0009		< 0.0001	2.2

Second part, led by results:

IC50 (A549) [µM]	IC50 (MDA-MB-231) [µM]	IC50 (MCF7) [µM]	IC50 (KB) [µM]	SMILES	IC50 [1] [µM]
> 10	> 10	> 10	> 10	COc1cc(-c2ccc(O)c(C/C=C(/C)CO)c2)cc(O)c1O	> 10
> 10	> 10	> 10	> 10	COc1cc(-c2ccc3c(c2)C=CC(C)(C)O3)cc(O)c1O	> 10
> 10	> 10	> 10	> 10	COc1cc(-c2ccc(O)c(CCC(C)CO)c2)cc(O)c1O (stereo not drawn)	> 10
3	2.9	3.2	1.8	C=CC(C)(C)c1c2c(c(O)c3c1OC(C)(C)[C@H]1CCC(C)=C[C@@H]31)C(=O)C1=C[C@@H]3C[C@H]4C(C)(C)O[C@@](C/C=C(/C)C(=O)O)(C3=O)[C@@]14O2	4
2.9	4.6	5.6	1.2	C=CC(C)(C)c1c2c(c(O)c3c1OC(C)(C)[C@H]1CCC(C)=C[C@@H]31)C(=O)C1=C[C@@H]3C[C@H]4C(C)(C)O[C@@](C/C=C(\C)C(=O)O)(C3=O)[C@@]14O2	5.2
> 10	> 10	10.4	6.1	C=CC(C)(C)c1c2c(c(O)c3c1O[C@]14[C@H](C3=O)[C@@H](OC)[C@H]3C[C@H]1C(C)(C)O[C@@]4(C/C=C(\C)C(=O)O)C3=O)C=CC(C)(C)O2	> 10
